Results on two molecules are retold here after patent publication US10654829B2, “Crystalline forms and compositions of CFTR modulators” (Vertex Pharmaceuticals Incorporated, priority 2017, dated 2020).

The nature of one data set: pKa determination. The class given is physicochemical.
The target of data set [1] is T1, F508del-CFTR (Homo sapiens, UniProt P13569, DEL508-508). Description: Membrane potential optical (FLIPR) assay for F508del-CFTR modulators. Further details: expressed in transfected cells. It counts as cell-based. The source says: The assay utilizes fluorescent voltage sensing dyes to measure changes in membrane potential using a fluorescent plate reader (e.g., FLIPR III, Molecular Devices, Inc.) as a readout for increase in functional F508del in NIH 3T3 cells. The driving force for the response is the creation of a chloride ion gradient in conjunction with channel activation and concurrent with compound treatment by a single liquid addition step after the cells have previously been loaded with a voltage sensing dye.
To identify modulators of F508del, a fluorescence based HTS assay format was developed. This HTS assay utilizes fluorescent voltage sensing dyes to measure changes in membrane potential on the FLIPR III as a measurement for increase in gating (conductance) of F508del NIH 3T3 cells. The driving force for the response is the creation of a chloride ion gradient in conjunction with channel activation and concurrent with compound treatment by a single liquid addition step after the cells have previously been loaded with a voltage sensing dye.
(in mM) NaCl 160, KCl 4.5, CaCl2) 2, MgCl2 1, HEPES 10, pH 7.4 with NaOH, Glucose 10.
Chloride salts in Bath Solution #1 (above) are substituted with gluconate salts.
NIH3T3 mouse fibroblasts stably expressing F508del are used for optical measurements of membrane potential. The cells are maintained at 37° C. in 5% CO2 and 90% humidity in Dulbecco's modified Eagle's medium supplemented with 2 mM glutamine, 10% fetal bovine serum, 1×NEAA, β-ME, 1× pen/strep, and 25 mM HEPES in 175 cm^2 culture flasks. For all optical assays, the cells were seeded at 12,000 cells/well in 384-well matrigel-coated plates and cultured for 18-24 hrs at 37° C. for the potentiator assay. For the correction assays, the cells are cultured at 37° C. with and without compounds for 18-24 hours.

For data set [2], the target named is T1, F508del-CFTR. Description: Ussing chamber assay, chloride transport in HBE cells. It counts as cell-based. On the set-up: CF-HBE were isolated from patients homozygous for F508del; endogenous in cells; host or cells: primary CF human bronchial epithelial cells (F508del/F508del-HBE). On the procedure: Using chamber experiments were performed on polarized airway epithelial cells expressing F508del to further characterize the F508del modulators identified in the optical assays. Non-CF and CF airway epithelia were isolated from bronchial tissue, cultured as previously described (Galietta, L. J. V., Lantero, S., Gazzolo, A., Sacco, O., Romano, L., Rossi, G. A., & Zegarra-Moran, O. (1998) In Vitro Cell. Dev. Biol. 34, 478-481), and plated onto Costar® Snapwell™ filters that were precoated with NIH3T3-conditioned media. After four days the apical media was removed and the cells were grown at an air liquid interface for >14 days prior to use. […] CF-HBE were isolated from patients homozygous for F508del or compound heterozygous for F508del with a different disease causing mutation on the other allele.
HBE grown on Costar® Snapwell™ cell culture inserts were mounted in an Using chamber (Physiologic Instruments, Inc., San Diego, Calif.), and the transepithelial resistance and short-circuit current in the presence of a basolateral to apical Cl^− gradient (ISC) were measured using a voltage-clamp system (Department of Bioengineering, University of Iowa, IA). Briefly, HBE were examined under voltage-clamp recording conditions (Vhold=0 mV) at 37° C. The basolateral solution contained (in mM) 145 NaCl, 0.83 K2HPO4, 3.3 KH2PO4, 1.2 MgCl2, 1.2 CaCl2, 10 Glucose, 10 HEPES (pH adjusted to 7.35 with NaOH) and the apical solution contained (in mM) 145 NaGluconate, 1.2 MgCl2, 1.2 CaCl2), 10 glucose, 10 HEPES (pH adjusted to 7.35 with NaOH).
Typical protocol utilized a basolateral to apical membrane Cl^− concentration gradient. To set up this gradient, normal ringers was used on the basolateral membrane, whereas apical NaCl was replaced by equimolar sodium gluconate (titrated to pH 7.4 with NaOH) to give a large Cl^− concentration gradient across the epithelium. Modulators were added either to the basolateral side […] to assay or to the apical side during the assay. Forskolin (10 μM) was added to the apical side during the assay to stimulate CFTR-mediated Cl^− transport.

Data set [3] has as its target T1, F508del-CFTR. Nature of the data set: F508del-CFTR processing and trafficking in vitro (170 to 180 kDa band). The class given is cell-based. Further details: CF-HBE were isolated from patients homozygous for F508del; endogenous in cells; host or cells: primary CF human bronchial epithelial cells (F508del/F508del-HBE). The source says: Processing and trafficking of F508del-CFTR was directly monitored by the appearance of a 170 to 180 kDa band.

Each structure is given as a SMILES string. Entries after “also recorded” stand apart in the source; their conditions may differ. Like-named read-outs stand apart in the source and are kept apart here.

T1 sequence (P13569 with tags, fused parts or gaps DEL508-508): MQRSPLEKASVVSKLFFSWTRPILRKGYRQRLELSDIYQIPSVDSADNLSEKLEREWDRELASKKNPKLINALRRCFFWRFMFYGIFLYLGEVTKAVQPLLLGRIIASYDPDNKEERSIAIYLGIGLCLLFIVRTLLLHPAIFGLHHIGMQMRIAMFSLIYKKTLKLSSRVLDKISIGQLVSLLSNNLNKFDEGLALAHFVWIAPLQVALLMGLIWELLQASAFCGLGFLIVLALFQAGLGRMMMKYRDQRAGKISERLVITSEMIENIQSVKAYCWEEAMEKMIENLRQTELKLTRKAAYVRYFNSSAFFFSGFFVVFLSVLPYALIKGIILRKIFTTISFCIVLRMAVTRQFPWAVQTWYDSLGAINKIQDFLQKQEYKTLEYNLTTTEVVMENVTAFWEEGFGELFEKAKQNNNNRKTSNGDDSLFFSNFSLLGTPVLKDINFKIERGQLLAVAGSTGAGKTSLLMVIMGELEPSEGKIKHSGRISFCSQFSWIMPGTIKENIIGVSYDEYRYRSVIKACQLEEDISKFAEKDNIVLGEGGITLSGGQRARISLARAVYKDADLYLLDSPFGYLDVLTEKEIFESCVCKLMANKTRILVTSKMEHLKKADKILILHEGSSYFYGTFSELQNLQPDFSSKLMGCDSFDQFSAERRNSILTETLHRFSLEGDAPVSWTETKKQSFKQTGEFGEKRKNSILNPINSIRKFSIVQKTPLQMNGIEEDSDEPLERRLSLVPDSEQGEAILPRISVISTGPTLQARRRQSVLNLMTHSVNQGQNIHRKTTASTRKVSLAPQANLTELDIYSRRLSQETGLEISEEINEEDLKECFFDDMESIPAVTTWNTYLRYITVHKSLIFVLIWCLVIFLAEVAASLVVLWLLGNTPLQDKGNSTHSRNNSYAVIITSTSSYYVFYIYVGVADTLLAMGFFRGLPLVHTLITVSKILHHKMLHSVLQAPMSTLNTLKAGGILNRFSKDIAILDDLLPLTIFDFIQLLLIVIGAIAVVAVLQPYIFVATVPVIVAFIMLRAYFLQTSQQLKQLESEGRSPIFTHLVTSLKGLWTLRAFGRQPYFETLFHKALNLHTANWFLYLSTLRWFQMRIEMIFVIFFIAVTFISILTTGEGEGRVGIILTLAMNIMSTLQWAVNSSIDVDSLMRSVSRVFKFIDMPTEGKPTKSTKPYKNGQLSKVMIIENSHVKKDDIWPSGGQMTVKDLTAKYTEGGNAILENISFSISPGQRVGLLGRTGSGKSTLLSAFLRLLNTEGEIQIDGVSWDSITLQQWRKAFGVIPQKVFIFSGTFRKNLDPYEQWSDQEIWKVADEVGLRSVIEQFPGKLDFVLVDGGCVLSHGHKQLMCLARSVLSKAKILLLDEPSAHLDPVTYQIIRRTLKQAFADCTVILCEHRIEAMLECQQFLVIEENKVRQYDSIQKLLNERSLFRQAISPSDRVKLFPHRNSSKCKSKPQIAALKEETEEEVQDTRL

With `C[C@@H]1CN(c2nc(-n3ccc(OCCC4(C(F)(F)F)CC4)n3)ccc2C(=O)NS(=O)(=O)c2ccccc2)C(C)(C)C1` [Compound I, N-(benzenesulfonyl)-6-[3-[2-[1-(trifluoromethyl)cyclopropyl]ethoxy]pyrazol-1-yl]-2-[(4S)-2,2,4-trimethylpyrrolidin-1-yl]pyridine-3-carboxamide], the pKa in “pKa determination” was found to be 4.95 ± 0.06. The EC50 at F508del-CFTR [1] (CFTR Activity, Table 120, read-out: CFTRdF508 EC50) was less than 0.1 µM. The EC50 at F508del-CFTR [1] (F508del NIH 3T3 cells, membrane potential HTS assay, read-out: EC50) was less than 3 µM. Further, at F508del-CFTR [1] (NIH3T3, F508del NIH 3T3 cells, relative to Compound II, read-out: % Efficacy relative to Compound II), the Emax was not below 100%. On F508del-CFTR [2] (F508del/F508del-HBE cells), the chloride transport entry is recorded as “enhanced chloride transport” and the “effect on chloride transport together with Compound II” value is given as “additive to the effect of Compound II”. Also, the “increase in steady-state levels, fold of untreated levels” value at F508del-CFTR [3] (F508del/F508del-HBE cells, 16 to 24 hours, 1 μM Compound I alone) was determined as 6.5 fold. Besides, on F508del-CFTR [3] (in vitro), the “processing and trafficking of F508del-CFTR” value was “improved the processing and trafficking of F508del-CFTR; also recorded: facilitates the processing and trafficking of F508del-CFTR”.

On to `CC(C)(C)c1cc(C(C)(C)C)c(NC(=O)c2c[nH]c3ccccc3c2=O)cc1O` [Compound III, N-(5-hydroxy-2,4-di-tert-butyl-phenyl)-4-oxo-1H-quinoline-3-carboxamide, reference compound], for which, at F508del-CFTR [2] (HBE cells), the “potentiation of F508del-CFTR delivered to the cell surface by Compound I alone or in combination with Compound II” value was “potentiated”.

By pKa is commonly meant the negative logarithm of the acid dissociation constant. High values mean a weaker acid or stronger base, low ones a stronger acid or weaker base. By EC50 is commonly meant the concentration that produces a half-maximal response.
